According to patent US8168651B2, “Protein kinase modulators” (Cylene Pharmaceuticals, Inc., priority 2008, dated 2012):
Read-outs that look alike come from different tables or passages of the source.

What was measured:
recombinant human CK2 = recombinant human CK2 (Homo sapiens (Human), UniProt P68400); experiment: CK2 assay (cell-free, 33P-ATP filter plate); type: biochemical; conditions: 500 nM compound, read-out: CK2: % inh 500 nM
recombinant human PIM1 = recombinant human PIM1 (Homo sapiens (Human), UniProt P11309); experiment: PIM-1 kinase activity in cell-free in vitro assay; type: biochemical; conditions: for inhibition at 0.5 µM: 500 nM compound, read-out: PIM-1: % inh 500 nM
[1] = test system: HCT-116 human colorectal carcinoma cells; experiment: Cell-proliferation assay using Alamar Blue dye; type: cell-based; conditions: Homo sapiens;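 note: cells exposed to compound for about 4 days, then Alamar Blue added and dye fluorescence read after about 4 h, compared with medium-only control wells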
K-562 = experiment: Cell proliferation modulatory activity, K-562; type: cell-based; conditions: Homo sapiens, K562; K-562 cells
[2] = HCT-116, HCT-116, second column, read-out: HCT-116 (uM), cell proliferation modulatory activity
[3] = HCT-116, second HCT-116 column (c8), read-out: HCT-116 (uM) cell proliferation modulatory activity

recombinant human PIM1, sequence (P11309 whole entry): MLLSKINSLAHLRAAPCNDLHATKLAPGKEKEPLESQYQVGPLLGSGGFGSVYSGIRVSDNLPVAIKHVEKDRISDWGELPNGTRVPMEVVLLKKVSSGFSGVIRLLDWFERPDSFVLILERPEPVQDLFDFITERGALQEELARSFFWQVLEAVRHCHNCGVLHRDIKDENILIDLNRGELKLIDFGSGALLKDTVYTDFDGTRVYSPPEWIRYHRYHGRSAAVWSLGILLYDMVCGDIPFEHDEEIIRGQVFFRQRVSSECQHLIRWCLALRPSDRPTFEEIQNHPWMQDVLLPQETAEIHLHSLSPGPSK
recombinant human CK2, sequence (P68400 whole entry): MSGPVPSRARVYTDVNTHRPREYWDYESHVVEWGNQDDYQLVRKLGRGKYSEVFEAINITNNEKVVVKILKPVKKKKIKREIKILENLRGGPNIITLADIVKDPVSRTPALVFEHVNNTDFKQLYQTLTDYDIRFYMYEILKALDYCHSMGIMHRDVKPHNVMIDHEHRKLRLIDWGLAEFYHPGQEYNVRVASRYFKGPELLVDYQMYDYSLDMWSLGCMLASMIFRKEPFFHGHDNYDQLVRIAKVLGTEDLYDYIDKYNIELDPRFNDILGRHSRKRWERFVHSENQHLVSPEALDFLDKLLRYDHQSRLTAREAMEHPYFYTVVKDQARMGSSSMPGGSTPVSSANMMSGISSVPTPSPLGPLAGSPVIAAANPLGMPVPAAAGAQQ
recombinant human CK2, sequence (P67870 whole entry partner): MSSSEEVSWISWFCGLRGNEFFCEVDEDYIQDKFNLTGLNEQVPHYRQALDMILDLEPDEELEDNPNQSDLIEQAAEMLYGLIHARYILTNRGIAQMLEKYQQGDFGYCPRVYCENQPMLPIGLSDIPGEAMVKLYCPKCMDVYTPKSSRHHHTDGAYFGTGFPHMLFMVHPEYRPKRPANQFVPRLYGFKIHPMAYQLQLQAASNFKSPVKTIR

| inhibition at 0.5 µM (recombinant human CK2; cell-free) [%] | inhibition at 0.5 µM (recombinant human PIM1; cell-free) [%] | IC50 [1, 2] [µM] | inhibition at 0.5 µM (recombinant human CK2; cell-free assay) [%] | inhibition at 0.5 µM (recombinant human PIM1; cell-free assay) [%] | Structure (SMILES) | also measured |
| --- | --- | --- | --- | --- | --- | --- |
| 6.26 | -17.9 | – | – | – | COC(=O)c1ccc2c(c1)nc(Nc1ccc(F)c(Cl)c1)c1ncncc12 | – |
| 27.2 | 32.7 | – | – | – | Cc1noc(-c2ccc3c(c2)nc(Nc2ccccc2)c2ccncc23)n1 | IC50 (recombinant human PIM1; cell-free): > 1.1 µM |
| 40.5 | -11.7 | > 10 | – | – | CC(C)(C)OC(=O)CCNC(=O)c1cccc(Nc2nc3cc(-c4nnn[nH]4)ccc3c3sccc23)c1 | – |
| 37.7 | -20.9 | > 10 | – | – | O=C(O)c1ccc2c(c1)nc(Nc1cccc(C(=O)Nc3ccccc3)c1)c1ccsc12 | – |
| 52.9 | 5.99 | > 10 | – | – | O=C(O)c1ccc2c(c1)nc(Nc1cccc(C(=O)Nc3nccs3)c1)c1ccsc12 | – |
| 65.5 | 22.4 | > 10 | – | – | CC(C)(C)OC(=O)CCNC(=O)c1cccc(Nc2nc3cc(C(=O)O)ccc3c3sccc23)c1 | – |
| 62.2 | 25.8 | > 10 | – | – | O=C(O)c1ccc2c(c1)nc(Nc1cccc(C(=O)NCc3cccnc3)c1)c1ccsc12 | – |
| 21.3 | -12.2 | > 10 | – | – | CN(C)C(=O)c1cccc(Nc2nc3cc(C(=O)O)ccc3c3sccc23)c1 | – |
| 62.7 | 10.6 | > 10 | – | – | Cc1cc(CNC(=O)c2cccc(Nc3nc4cc(C(=O)O)ccc4c4sccc34)c2)no1 | – |
| 65.2 | 12 | > 10 | – | – | COCCNC(=O)c1cccc(Nc2nc3cc(C(=O)O)ccc3c3sccc23)c1 | – |
| 36.5 | 20.8 | > 10 | – | – | CC(=O)N1CCN(C(=O)c2cccc(Nc3nc4cc(C(=O)O)ccc4c4sccc34)c2)CC1 | – |
| 51.2 | 19.1 | > 10 | – | – | O=C(Cc1cccc(Nc2nc3cc(C(=O)O)ccc3c3sccc23)c1)NC1CC1 | – |
| -6.27 | 8.94 | > 10 | – | – | COC(=O)c1ccc2c(c1)nc(Nc1cccc(CC(=O)O)c1)c1ccsc12 | – |
| 55.4 | 42.5 | > 10 | – | – | CN(C)C(=O)Cc1cccc(Nc2nc3cc(C(=O)O)ccc3c3sccc23)c1 | – |
| 65.8 | 4.58 | > 10 | – | – | O=C(O)c1ccc2c(c1)nc(Nc1cccc(-c3ccccc3)c1)c1ccsc12 | – |
| 6.43 | -26.7 | 9.56 | – | – | COC(=O)c1ccc2c(c1)nc(Nc1ccccc1)c1nc(SC)ncc12 | – |
| -44.2 | -27.8 | 0.967 | – | – | COC(=O)c1ccc2c(c1)nc(Nc1ccccc1)c1nc(S(C)(=O)=O)ncc12 | – |
| – | – | – | -12.1 | -9.76 | CNc1ncc2c(n1)c(Nc1ccccc1)nc1cc(C(=O)OC)ccc12 | – |
| – | – | – | – | 9.67 | CSc1ncc2c(n1)c(Nc1ccccc1C)nc1cc(C(=O)O)ccc12 | IC50 [1, 3]: > 10 µM; IC50 (K-562): > 10 µM |
| – | – | – | – | 9.84 | COC(=O)c1ccc2c(c1)nc(N(C)c1ccccc1)c1nc(S(C)(=O)=O)ncc12 | IC50 [1, 3]: 4.36 µM; IC50 (K-562): 0.334 µM |
| – | – | – | – | 31.4 | CN(c1ccccc1)c1nc2cc(C(=O)O)ccc2c2cnc(NC3CC3)nc12 | IC50 [1, 3]: > 10 µM; IC50 (K-562): > 10 µM |
| – | – | – | – | 12.6 | CNC(=O)c1ccc2c(c1)nc(N(C)c1ccccc1)c1nc(NC3CC3)ncc12 | IC50 [1, 3]: 9.74 µM; IC50 (K-562): > 10 µM |
| – | – | – | – | 16.1 | CN(c1ccccc1)c1nc2cc(C(=O)NC3CC3)ccc2c2cnc(NC3CC3)nc12 | IC50 [1, 3]: > 10 µM; IC50 (K-562): > 10 µM |
| – | – | – | – | -0.201 | CN(C)C(=O)c1ccc2c(c1)nc(N(C)c1ccccc1)c1nc(NC3CC3)ncc12 | IC50 [1, 3]: 5.19 µM; IC50 (K-562): > 10 µM |
| – | – | – | – | – | O=C(O)c1ccc2c(c1)nc(Nc1ccccc1)c1ncccc12 | IC50 [1, 3]: > 10 µM; IC50 (K-562): > 10 µM |

| inhibition at 0.5 µM (recombinant human CK2; cell-free) [%] | inhibition at 0.5 µM (recombinant human PIM1; cell-free) [%] | IC50 [1, 2] [µM] | inhibition at 0.5 µM (recombinant human CK2; cell-free assay) [%] | inhibition at 0.5 µM (recombinant human PIM1; cell-free assay) [%] | Structure (SMILES) | also measured |
| --- | --- | --- | --- | --- | --- | --- |
| – | – | – | 96.5 | 25 | O=C(O)c1ccc2c(c1)nc(Nc1ccccc1Oc1ccccc1)c1ccncc12 | IC50 [1, 3]: > 10 µM |
| – | – | – | 41.5 | -7.65 | O=C(O)c1ccc2c(c1)nc(Nc1ccccc1)c1nccnc12 | IC50 [1, 3]: > 10 µM |
| – | – | – | 5.49 | -26 | O=C(O)c1ccc2c(c1)nc(NCCc1ccccc1)c1nccnc12 | IC50 [1, 3]: > 10 µM |
| – | – | – | 88.7 | 21.9 | O=C(O)c1ccc2c(c1)nc(Nc1cccc(F)c1)c1nccnc12 | IC50 [1, 3]: > 10 µM |
| – | – | – | 19.3 | 1.15 | CN(c1ccccc1)c1nc2cc(C(=O)O)ccc2c2nccnc12 | IC50 [1, 3]: > 10 µM |
| – | – | – | 50.7 | 118 | OCCN(CCO)CCNc1nc2cc(-c3nnn[nH]3)ccc2c2sccc12 | IC50 (recombinant human PIM1; cell-free assay): 0.116 µM |
| – | – | – | -9.99 | 27.8 | N#Cc1ccc2c(c1)nc(Oc1ccc(F)c(F)c1)c1ccsc12 | – |
| – | – | – | -7.33 | -22.2 | N#Cc1ccc2c(c1)nc(Oc1ccc3ncccc3c1)c1ccsc12 | – |
| – | – | – | -3.78 | 10 | N#Cc1ccc2c(c1)nc(Oc1ccc(F)cc1)c1ccsc12 | – |
| – | – | – | -17.9 | 1.38 | CC(=O)c1ccc(Oc2nc3cc(C#N)ccc3c3sccc23)cc1 | – |
| – | – | – | -10.8 | 10.6 | N#Cc1ccc2c(c1)nc(Oc1cccc(Cl)c1)c1ccsc12 | – |
| – | – | – | -7.77 | -10.1 | Cc1cc2c(cc1OCc1ccccc1)[nH]c(=O)c1ccncc12 | – |
| – | – | – | 7.5 | 19.8 | O=c1[nH]c2cnccc2c2cnccc12 | – |
| – | – | – | -8.77 | -16.4 | NCc1ccc2c(c1)nc(Nc1cccc(F)c1)c1ccsc12 | – |
| – | – | – | -2.29 | 2.98 | Fc1cccc(Nc2nc3cc(CN(Cc4ccccc4)Cc4ccccc4)ccc3c3sccc23)c1 | – |
| – | – | – | -9.99 | -17.5 | Cc1cc(NC(=O)NCc2ccc3c(c2)nc(Nc2cccc(F)c2)c2ccsc23)c(C(F)(F)F)o1 | – |
| – | – | – | -4.71 | -11.2 | Cc1noc(C)c1NC(=O)NCc1ccc2c(c1)nc(Nc1cccc(F)c1)c1ccsc12 | – |
| – | – | – | -5.43 | 11 | Cc1nn(C)c(C)c1NC(=O)NCc1ccc2c(c1)nc(Nc1cccc(F)c1)c1ccsc12 | – |
| – | – | – | -1.1 | 15.3 | O=c1[nH]c2cc(F)ccc2c2cnccc12 | – |
| – | – | – | 1.22 | 9.09 | O=c1[nH]c2ccc(OC(F)(F)F)cc2c2cnccc12 | – |
| – | – | – | 10.1 | -29.2 | COC(=O)c1cccc2c1nc(Cl)c1ccncc12 [drawing 2000] | – |
| – | – | – | 15.5 | 20.2 | O=C(O)c1cccc2c1nc(Nc1cccc(Cl)c1)c1ccncc12 [drawing 2001] | – |
| – | – | – | 36.6 | 78.9 | NC(=O)c1cccc2c1nc(Nc1cccc(Cl)c1)c1ccncc12 [drawing 2002] | – |
| – | – | – | -7.87 | 3.96 | COC(=O)c1cccc2c1nc(Nc1ccccc1)c1ccncc12 [drawing 2003] | – |
| – | – | – | -13.5 | -77.4 | O=C(O)c1cccc2c1nc(Nc1ccccc1)c1ccncc12 [drawing 2004] | – |
